For test [1], the target named is T1, hAMY1R (Homo sapiens, UniProt O60894+P30988).
T1 construct: expressed in transfected cells
Put plainly: hAMY1R cAMP functional activity (HTRF). The format is cell-based. Particulars: ±SE; UMUC3 cells overexpressing hAMY1R; relative EC50. As to the method:
(§1) The AMY1 and CT receptors are GPCRs that are functionally coupled to Gas proteins. […] In vitro activity of peptides is measured by the amount of cAMP formed in human AMY1R and CTR overexpressed cells.
Human AMY1R stable cell lines are generated by further transfecting human RAMP1-pCMVpuroPB (T14213) into UMUC3 hCTR clone cells. After selection, the mRNA levels human RAMP1 from different clones are measured to confirm the expression of human AMY1R.
(§2) hAMY1R cells are cultured in MEM 1× (Corning) supplemented with 10% FBS, 1% antibiotic/antimycotic solution, 1 mM sodium pyruvate, 1×MEM NEAA, 1× GlutaMAX-I, 200 μg/mL hygromycin B, and 0.4 μg/mL puromycin. The hCTR cells are cultured in the same medium lacking the puromycin. Cultured cells are grown to 70% confluency and then incubated overnight with fresh medium.
(§3) Peptides diluted in DMSO are added (200 nL/well) in a 1:3 dilution series using ECHO acoustic liquid handler (Beckman). Cultured cells are detached with TrypLE Express (Gibco), resuspended in assay buffer, and 10 μL containing 1200 cells/well (hCTR) or 1500 cells/well (hAMY1R) are dispensed into each well. The plates are incubated at room temperature for 1 hour.
(§4) The amount of intracellular cAMP is quantitated using HTRF technology (Homogeneous Time Resolved Fluorescence; Cisbio) as per vendor instructions. Briefly, 10 μL cAMP-d2 conjugate and 10 μL anti-cAMP-cryptate conjugate in lysis buffer are incubated with the treated cells at room temperature for 60 min. […] The raw data are converted to cAMP amount (pmol/well) using a cAMP standard curve generated for each experiment.

For test [2], the target named is T2, human CT receptors (Homo sapiens, UniProt P30988).
T2 construct: expressed in transfected cells
T2 sequence (P30988 25-474): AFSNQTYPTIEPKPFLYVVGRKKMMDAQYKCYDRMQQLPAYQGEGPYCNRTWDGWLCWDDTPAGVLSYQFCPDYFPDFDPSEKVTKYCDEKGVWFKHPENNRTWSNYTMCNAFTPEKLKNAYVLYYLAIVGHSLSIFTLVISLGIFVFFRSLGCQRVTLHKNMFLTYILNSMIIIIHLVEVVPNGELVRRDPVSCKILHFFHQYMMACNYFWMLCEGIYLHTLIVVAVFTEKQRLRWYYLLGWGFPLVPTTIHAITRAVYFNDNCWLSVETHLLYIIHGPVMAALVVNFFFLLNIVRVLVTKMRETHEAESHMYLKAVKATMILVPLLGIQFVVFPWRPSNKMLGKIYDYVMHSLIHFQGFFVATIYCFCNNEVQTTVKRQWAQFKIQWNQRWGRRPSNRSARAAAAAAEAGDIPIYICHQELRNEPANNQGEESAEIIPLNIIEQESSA
The experiment in a line: hCTR cAMP functional activity (HTRF). It is filed as cell-based. The settings on record: ±SE; UMUC3 cells overexpressing hCTR; relative EC50. How it is done:
as §1
Human CT receptors are stably expressed in human urinary bladder cells (UM-UC-3, or UMUC3) under control of a pcDNA expression vector. […] After 20 days under selection, the mRNA levels from different clones are measured to confirm the expression of hCTR. To determine the function of over-expressed hCTR cells, the intracellular cAMP levels in response to salmon calcitonin are measured and compared to the expression of hCTR mRNA in each clone.
as §2, §3, §4

Test [3] is described as follows: DIO rats: Compound II alone and in combination with incretin compounds. The settings on record: for Cumulative Food Intake: 14-day treatment period, mean±SEM. The format is in vivo, Long Evans rats. How it is done: This study is conducted to investigate the effect of Compound II for diabetes and/or obesity conditions in DIO rats when administered in combination with other incretin compounds, including a GLP-1 agonist (Compound XVII), oxyntomodulin analog (Compound XVIII), and a triagonist of glucagon, GLP-1, and GIP (Compound XIX). Diet-induced obese (DIO) male Long Evans (Envigo) rats, maintained on a calorie rich diet since arrival at Lilly (TD95217; Teklad, Madison, WI), are used in the following studies. Animals are individually housed in a temperature-controlled (24° C.) facility with 12-hour light/dark cycle (lights on 2200) and free access to food (TD95217) and water.
The rats are randomized according to their body weight, so that each experimental group of animals would have similar body weight. The body weights range from 529 to 823 grams.
Each group contains five rats. […] SC injections are made on Days 1, 4, 7, 10 and 13. Body weight and food intake are measured daily throughout the study. Absolute changes in body weight are calculated by subtracting the body weight of the same animal prior to the first injection of molecule.
At the end of the study, blood is collected to measure blood glucose and plasma insulin. Blood glucose is measured by AccuChek glucometers (Roche, Indianapolis, IN). Insulin is measured by ELISA (MSD, Rockville, MD).
All data are presented as mean±SEM of 5 animals per group. Statistical analysis is performed using one-way ANOVA, followed by Tukey's multiple comparison test to compare treatment groups to vehicle group or each other. Significant differences are identified at p<0.05.

Starred links: 1 amine or outer side, 2 acyl side, 3 side chain; linkers in the order of their positions; H or OH if unused. Positions of bridges follow the written chain, without caps; N, C: chain ends. Non-standard residues stand in square brackets, D forms with d. Residues, ends and D or L forms follow the SMILES beside them. Groups on a side chain read outwards from the residue. *: point of attachment. C20 diacid = O=C(O)CCCCCCCCCCCCCCCCCCC(=O)*; γGlu = O=C(O)[C@H](CCC(=O)[*:2])N[*:1]; Orn = NCCC[C@H](N)C(=O)O; AEEA = NCCOCCOCC(=O)O; Aib = CC(C)(N)C(=O)O; CH2 = C([*:1])[*:2]

Data on five compounds can be found in patent US12551532B2, “Long-acting amylin receptor agonists and uses thereof” (Eli Lilly and Company, priority 2021, dated 2026).

T1 sequence (O60894 27-148 partner, one chain of several): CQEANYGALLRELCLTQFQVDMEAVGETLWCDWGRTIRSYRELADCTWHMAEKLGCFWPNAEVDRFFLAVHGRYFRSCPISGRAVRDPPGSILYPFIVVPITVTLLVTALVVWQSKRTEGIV

With `CC(C)C[C@H](NC(=O)[C@H](CCCN)NC(=O)[C@H](CCC(N)=O)NC(=O)[C@@H](NC(=O)[C@H](C)NC(=O)[C@@H]1CSCSC[C@H](NC(=O)CC[C@H](N)C(=O)O)C(=O)N[C@@H](CC(N)=O)C(=O)N[C@@H]([C@@H](C)O)C(=O)N[C@@H](C)C(=O)N[C@@H]([C@@H](C)O)C(=O)N1)[C@@H](C)O)C(=O)N[C@@H](C)C(=O)N[C@@H](CCC(=O)O)C(=O)N[C@@H](Cc1ccccc1)C(=O)N[C@@H](CC(C)C)C(=O)N[C@H](C(=O)N[C@@H](CCCNC(=N)N)C(=O)N[C@@H](CO)C(=O)N[C@@H](CO)C(=O)N[C@@H](CC(N)=O)C(=O)N[C@@H](CC(N)=O)C(=O)N[C@@H](Cc1ccccc1)C(=O)NCC(=O)N1CCC[C@H]1C(=O)N[C@@H](CCCCNC(=O)COCCOCCNC(=O)COCCOCCNC(=O)CC[C@H](NC(=O)CCCCCCCCCCCCCCCCCCC(=O)O)C(=O)O)C(=O)N[C@@H](CC(C)C)C(=O)N1CCC[C@H]1C(=O)N1CCC[C@H]1C(=O)N[C@H](C(=O)N[C@@H](CCC(=O)O)C(=O)N[C@H](C(=O)NCC(=O)N[C@@H](CO)C(=O)N[C@@H](CC(N)=O)C(=O)N[C@H](C(=O)N[C@@H](Cc1ccc(O)cc1)C(N)=O)[C@@H](C)O)C(C)C)[C@@H](C)O)C(C)C` [Compound XII] (γGlu-CNTATCATQ[Orn]LAEFLVRSSNNFGPK([AEEA-AEEA-γGlu-C20 diacid])LPPTEVGSNTY-NH2; linker 1-6 via CH2), the values for the EC50 in test [1] and in test [2] were 0.113 ± 0.034 nM and 25.9 ± 7.62 nM, respectively.

For the compound `CC(C)C[C@H](NC(=O)[C@H](CCCCN)NC(=O)CNC(=O)[C@@H](NC(=O)[C@H](C)NC(=O)[C@@H]1CSCSC[C@H](NC(=O)CC[C@H](N)C(=O)O)C(=O)N[C@@H](CC(N)=O)C(=O)N[C@@H]([C@@H](C)O)C(=O)N[C@@H](C)C(=O)N[C@@H]([C@@H](C)O)C(=O)N1)[C@@H](C)O)C(=O)N[C@@H](C)C(=O)N[C@@H](CCC(=O)O)C(=O)N[C@@H](Cc1ccccc1)C(=O)N[C@@H](CC(C)C)C(=O)N[C@H](C(=O)N[C@@H](CCCNC(=N)N)C(=O)N[C@@H](CO)C(=O)N[C@@H](CO)C(=O)N[C@@H](CC(N)=O)C(=O)N[C@@H](CC(N)=O)C(=O)N[C@@H](Cc1ccccc1)C(=O)NCC(=O)N1CCC[C@H]1C(=O)N[C@@H](CCCCNC(=O)CC[C@H](NC(=O)CC[C@H](NC(=O)COCCOCCNC(=O)CCCCCCCCCCCCCCCCCCC(=O)O)C(=O)O)C(=O)O)C(=O)N[C@@H](CC(C)C)C(=O)N1CCC[C@H]1C(=O)N1CCC[C@H]1C(=O)N[C@H](C(=O)N[C@@H](CCC(=O)O)C(=O)N[C@H](C(=O)NCC(=O)N[C@@H](CO)C(=O)N[C@@H](CC(N)=O)C(=O)N[C@H](C(=O)N[C@@H](Cc1ccc(O)cc1)C(N)=O)[C@@H](C)O)C(C)C)[C@@H](C)O)C(C)C` [Compound XI] (γGlu-CNTATCATGKLAEFLVRSSNNFGPK([γGlu-γGlu-AEEA-C20 diacid])LPPTEVGSNTY-NH2; linker 1-6 via CH2), the EC50 is 0.038 ± 0.0078 nM in test [1] and 10.5 ± 2.2 nM in test [2].

For the compound `CC(C)C[C@H](NC(=O)[C@H](CCCCN)NC(=O)CNC(=O)[C@@H](NC(=O)[C@H](C)NC(=O)[C@@H]1CSCSC[C@H](NC(=O)CC[C@H](N)C(=O)O)C(=O)N[C@@H](CC(N)=O)C(=O)N[C@@H]([C@@H](C)O)C(=O)N[C@@H](C)C(=O)N[C@@H]([C@@H](C)O)C(=O)N1)[C@@H](C)O)C(=O)N[C@@H](C)C(=O)N[C@@H](CCC(=O)O)C(=O)N[C@@H](Cc1ccccc1)C(=O)N[C@@H](CC(C)C)C(=O)N[C@H](C(=O)N[C@@H](CCCNC(=N)N)C(=O)N[C@@H](CO)C(=O)N[C@@H](CO)C(=O)N[C@@H](CC(N)=O)C(=O)N[C@@H](CC(N)=O)C(=O)N[C@@H](Cc1ccccc1)C(=O)NCC(=O)N1CCC[C@H]1C(=O)N[C@@H](CCCCNC(=O)CC[C@H](NC(=O)COCCOCCNC(=O)COCCOCCNC(=O)CCCCCCCCCCCCCCCCCCC(=O)O)C(=O)O)C(=O)N[C@@H](CC(C)C)C(=O)N1CCC[C@H]1C(=O)N1CCC[C@H]1C(=O)N[C@H](C(=O)N[C@@H](CCC(=O)O)C(=O)N[C@H](C(=O)NCC(=O)N[C@@H](CO)C(=O)N[C@@H](CC(N)=O)C(=O)N[C@H](C(=O)N[C@@H](Cc1ccc(O)cc1)C(N)=O)[C@@H](C)O)C(C)C)[C@@H](C)O)C(C)C` [Compound X] (γGlu-CNTATCATGKLAEFLVRSSNNFGPK([γGlu-AEEA-AEEA-C20 diacid])LPPTEVGSNTY-NH2; linker 1-6 via CH2), the half-maximal effective concentration (EC50) was 0.08 ± 0.013 nM in test [1] and 14 ± 3.32 nM in test [2].

With “H-Aib-QGTFTSDYSKYLDEKKAK((2-[2-(2-Amino-ethoxy)-ethoxy]-acetyl)2-(γGlu)-CO-(CH2)18-CO2H)EFVEWLLEGGPSSG-NH2 (H-H[Aib]QGTFTSDYSKYLDEKKAK([AEEA-AEEA-γGlu-C20 diacid])EFVEWLLEGGPSSG-NH2) [Compound XVIII, oxyntomodulin analog]”, the “Body Weight Change” value in test [3] (10 nmol/kg SC Day 1, 4, 7, 10, 13, Day 1 to Day 14, mean±SEM) was -50.24 ± 6.36 g. The “Cumulative Food Intake” value in test [3] (10 nmol/kg SC every three days) came out at 165.86 ± 7.45 g.

For the compound “Y-Aib-QGTFTSDYSI-αMeL-LDKK((2-[2-(2-Amino-ethoxy)-ethoxy]-acetyl)-(γGlu)-CO-(CH2)18-CO2H)AQ-Aib-AFIEYLLEGGPSSGAPPPS-NH2 (YXQGTFTSDYSIXLDKKAQXAFIEYLLEGGPSSGAPPPS; Aib, αMeL; lipidated Lys; C-terminal amide; SITE 2 X at position 2 is Aib; SITE 13 X at position 13 is alpha-methyl-leucine; MOD_RES 17 K at position 17 is chemically modified by conjugation of the epsilon-amino group of the lysine side chain with (2-[2-(2-amino-ethoxy)-ethoxy]-acetyl)-(gamma-glutamic acid)-CO-(CH2)18-CO2H; SITE 20 X at position 20 is Aib; MOD_RES 39 S at position 39 is amidated) [Compound XIX, triagonist of glucagon, GLP-1, and GIP]”, in test [3] (3 nmol/kg SC Day 1, 4, 7, 10, 13, Day 1 to Day 14, mean±SEM), the “Body Weight Change” value was -43.28 ± 2.54 g. In addition, the “Cumulative Food Intake” value in test [3] (3 nmol/kg SC every three days) is 157.50 ± 10.63 g.
